Here are results for three compounds from BindingDB's records for doi:10.1021/jm00166a009 (Ohio State University, 1990).

Broadly, the IC50 is the point on the concentration scale where inhibition reaches its midpoint.

The test addresses Alpha-2 adrenergic receptor (Homo sapiens). Put plainly: Stimulatory activity against serotonin secretion (SEC).
In the case of `Oc1ccc(CC2=NCCN2)c(F)c1O`, the IC50 turned out to be 15.5 µM. This counts as double-digit micromolar.

The compound `Oc1ccc(C(O)c2ncc[nH]2)cc1O` (stereo not drawn) registered an IC50 of 437 µM. This IC50 lies about 28-fold higher than the previous one.

`Oc1cc(CC2=NCCN2)cc(F)c1O` displayed an IC50 of 18.2 µM.
